The values that follow come from patent publication US20060128736A1, “Camptothecin-carboxylate formulations” (priority 2002, published 2006).

In data set [1] the test system is A-375 melanoma. Nature of the data set: Therapeutic efficacy of LipoCam in A-375 melanoma of nude mice (FIG. 12). The data set is classed as in vivo, NMRI-nude mice. The conditions noted are these: iv three times a week for three weeks at equitoxic doses, start at about 100 mm^3. As for the experimental part:
(§1) NMRI-nude mice were purchased from Elevage Janvier and housed in isolated ventilated cages under save environmental conditions (SPF facility, 22° C., 30-70% humidity, 12 h light/dark cycle) with food and water ad libitum. Experimental design was reviewed and approved by local government.
(§2) Tumor cells (A-375 human melanoma cell line, ATCC Nr.: CRL-1619) were grown as described in the data sheet supplied by ATCC. Tumor cells (5×10^6 in PBS) were inoculated s.c. in the right dorsal flank of mice in a volume of 50 μl on day 0.
Mice were assigned to the experimental groups (8 animals per cage), housed and handled (including monitoring of the body weight gain) at least five days before tumor inoculation (=day −6 to 0). […] Equitoxic doses of the compounds were determined in separate experiments, where toxicity was evaluated based on haematological parameters, body weight and animal clinical observations (see Tab. 3). […] Animals were clinically monitored during the whole experiment, monitoring of tumor size was performed three times a week. The tumor dimensions were measured by caliper and the tumor size was calculated according to the following formula: V=πL W^2/6 (L=greatest length, W=width of perpendicular axis). The body weight of individual animals was monitored at least twice during handling period, after tumor inoculation and after start of treatment. […]

Data set [2] relates to A-375 melanoma. Nature of the data set: Therapeutic efficacy of LipoCam IV and VI in A-375 melanoma of nude mice (FIG. 13). The data set is classed as in vivo, NMRI-nude mice. The conditions noted are these: 1 and 2 mg/kg iv three times a week for three weeks. As for the experimental part:
as §1, §2
Mice were assigned to the experimental groups (8 animals per cage), housed and handled (including monitoring of the body weight gain) at least five days before tumor inoculation (=day −6 to 0). […] Toxicity was evaluated based on hematological parameters, body weight and animal clinical observations. […]
Animals were clinically monitored during the whole experiment, monitoring of tumor size was performed three times a week. The tumor dimensions were measured by caliper and the tumor size was calculated according to the following formula: V=πL W^2/6 (L=greatest length, W=width of perpendicular axis). The body weight of individual animals was monitored at least twice during handling period, after tumor inoculation and after start of treatment. […] The number of red and white blood cells and platelets were determined using an automated cell counter (Abbott Cell Dyn 3500).

Data set [3] can be described thus: Fluorescence anisotropy of CPT in lipid suspensions. The data set is classed as physicochemical. As to conditions: 10 mM Tris-buffer pH 7.5, 10% trehalose. For orientation: Fluorescence polarisation rises when a labelled molecule tumbles more slowly, as on binding a larger partner.
Excerpt: These finding are corroborated by fluorescence anisotropy measurements of the CPT. In this experiment, an increase of the fluorescence anisotropy is expected if the fluorophore is inserted into a liposome and thus its mobility is decreased. […] DOTAP and DOPC both comprise unsaturated fatty acid chains, but DOTAP is positively charged while DOPC is neutral.
For efficient binding, in addition to charge, the phase state of the fatty acid chains is important. […] DOTAP has its main phase transition (Tm) near 37° C. […] Below that temperature the fatty acid chains are in the gel phase (a crystalline like state) and above they are in the liquid crystalline (fluid-like) state.
FIG. 9: Fluorescence anisotropy measurements of CPT in lipid suspensions from DOTAP and DOPC and as prepared by different methods. […]
FIG. 10: Comparison of fluorescence anisotropy measurements with DOTAP and DMTAP Measurements with CPT and with 10-OH-CPT are shown. […]
In order to get further information on the CPT-lipid interaction form an independent method, fluorescence anisotropy measurements were performed. […] The fluorescence anisotropy was taken as a measure for the binding strength of CPT to the liposome. […]
Fluorescence anisotropy measurements from liposomes with two different cationic lipids, DOTAP and DMTAP, and two different CPT drugs (CPT and 10-OH-CPT) are compared. […]

Consider `CC[C@@](O)(C(=O)[O-])c1cc2n(c(=O)c1CO)Cc1cc3ccccc3nc1-2.[Na+]` [CPT-Na-Carboxylate], for which the “Anti-tumor effect (tumor volume)” value in data set [1] is listed as “only a retardation”.

For `CCC(O)(C(=O)O)c1cc2n(c(=O)c1CO)Cc1cc3ccccc3nc1-2` (stereo not shown) [CPT-carboxylate], the “Order of antitumor efficacy” value in data set [2] is recorded as “LipoCam IV (2 mg/kg)>LipoCam VI (1 mg/kg)>CPT-carboxylate (2 mg/kg)>CPT-carboxylate (1 mg/kg)”. For the same compound, the “Fluorescence anisotropy (measure of binding strength of CPT to the liposome)” value in data set [3] is given as “zero”.

In the case of `CC[C@@]1(O)C(=O)OCc2c1cc1n(c2=O)Cc2cc3cc(O)ccc3nc2-1` [Formulation 10-OH-CPT, 10-Hydroxy-camptothecin], the “Fluorescence anisotropy (measure of binding strength of CPT to the liposome)” value in data set [3] was “higher binding efficacy”.
